Experimental data from patent US3957987A, “Compositions containing a carbonamidoquinoxaline-di-N-oxide and method of using same” (Bayer Aktiengesellschaft, priority 1971, dated 1976).
In brackets after ≈: the same amount, converted by molar mass.

Columns and labels:
Format in all cases: cell-based
Mycobacterium species = test: Minimum inhibitory concentration, Mycobacterium species
Text: (§1) As representative of the spectrum of antimicrobial activity for these compounds, the following representative minimum inhibitory concentrations shown on Tables A, B and C can be noted: […]

[1] = system: Alcaligenes faecalis ATCC; test: Minimum inhibitory concentration, Alcaligenes faecalis ATCC
[2] = system: Staphylococcus aureus 133; test: Minimum inhibitory concentration in vitro, Staphylococcus aureus 133
Text: (§2) As representative of the spectrum of antimicrobial activity for these compounds, the following representative minimum inhibitory concentrations shown on Tables A, B and C can be noted:
(§3) Minimum Inhibitory Concentrations In Vitro, in μg/ml of Medium

Aeromonas liquefaciens = test: Minimum inhibitory concentration, Aeromonas liquefaciens; settings: Aeromonas hydrophila
Klebsiella 63 = test: Minimum inhibitory concentration in vitro, Klebsiella 63
Text: as §2, §3

[3] = system: Bordetella bronchiseptica; test: Minimum inhibitory concentration, Bordetella bronchiseptica
Streptococcus pyogenes = test: Minimum inhibitory concentration in vitro, Streptococcus pyogenes
Text: as §2, §3

Mycoplasma MS = test: Minimum inhibitory concentration, Mycoplasma MS
Text: as §1

Clostridium botulinum = test: microbe, parasite or virus in culture; settings: read-out: minimum inhibitory concentration
Mycoplasma S6 = test: Minimum inhibitory concentration, Mycoplasma S6
Clostridium tetani = test: microbe, parasite or virus in culture; settings: read-out: minimum inhibitory concentration
Klebsiella 8085 = test: Minimum inhibitory concentration in vitro, Klebsiella 8085
Text: as §2, §3

[4] = system: Pasteurella multocida ATCC; test: Minimum inhibitory concentration, Pasteurella multocida ATCC
Mycoplasma gran = test: Minimum inhibitory concentration, Mycoplasma gran
Escherichia coli C 165 = test: Minimum inhibitory concentration in vitro, Escherichia coli C 165; settings: C165
Text: as §2, §3

Escherichia coli A 261 = test: Minimum inhibitory concentration in vitro, Escherichia coli A 261; settings: A261
Text: as §2, §3

Proteus vulgaris = test: Minimum inhibitory concentration in vitro, Proteus vulgaris specieis
Text: as §2, §3

COC(=O)NN=Cc1c(C(=O)N2CCCCC2)[n+]([O-])c2ccccc2[n+]1[O-] [Example 10]
MIC (Mycobacterium species): 100 µg/mL (≈ 268 µM)
MIC [1]: 100 µg/mL (≈ 268 µM)
MIC [2]: 100 µg/mL (≈ 268 µM)
MIC (Aeromonas liquefaciens): 100 µg/mL (≈ 268 µM)
MIC (Klebsiella 63): 100 µg/mL (≈ 268 µM)
MIC [3]: 100 µg/mL (≈ 268 µM)
MIC (Streptococcus pyogenes): 100 µg/mL (≈ 268 µM)
MIC (Mycoplasma MS): 100 µg/mL (≈ 268 µM)
MIC (Clostridium botulinum): 10 µg/mL (≈ 26.8 µM)
MIC (Mycoplasma S6): 10 µg/mL (≈ 26.8 µM)
MIC (Clostridium tetani): 10 µg/mL (≈ 26.8 µM)
MIC (Klebsiella 8085): 100 µg/mL (≈ 268 µM)
MIC [4]: 1 µg/mL (≈ 2.68 µM)
MIC (Mycoplasma gran): 10 µg/mL (≈ 26.8 µM)

CCN(CC)C(=O)c1c(C=NNC(=O)OC)[n+]([O-])c2ccccc2[n+]1[O-] [Example 11]
MIC (Mycobacterium species): 100 µg/mL (≈ 277 µM)
MIC [1]: 100 µg/mL (≈ 277 µM)
MIC [2]: 100 µg/mL (≈ 277 µM)
MIC (Aeromonas liquefaciens): 100 µg/mL (≈ 277 µM)
MIC (Klebsiella 63): 100 µg/mL (≈ 277 µM)
MIC [3]: 100 µg/mL (≈ 277 µM)
MIC (Streptococcus pyogenes): 100 µg/mL (≈ 277 µM)
MIC (Mycoplasma MS): 100 µg/mL (≈ 277 µM)
MIC (Clostridium botulinum): 10 µg/mL (≈ 27.7 µM)
MIC (Mycoplasma S6): 10 µg/mL (≈ 27.7 µM)
MIC (Clostridium tetani): 10 µg/mL (≈ 27.7 µM)
MIC (Klebsiella 8085): 100 µg/mL (≈ 277 µM)
MIC [4]: 1 µg/mL (≈ 2.77 µM)
MIC (Mycoplasma gran): 10 µg/mL (≈ 27.7 µM)

COC(=O)NN=Cc1c(C(=O)N2CCCC2)[n+]([O-])c2ccccc2[n+]1[O-] [Example 12]
MIC (Mycobacterium species): 100 µg/mL (≈ 278 µM)
MIC [1]: 100 µg/mL (≈ 278 µM)
MIC [2]: 10 µg/mL (≈ 27.8 µM)
MIC (Aeromonas liquefaciens): 100 µg/mL (≈ 278 µM)
MIC (Klebsiella 63): 100 µg/mL (≈ 278 µM)
MIC [3]: 100 µg/mL (≈ 278 µM)
MIC (Streptococcus pyogenes): 100 µg/mL (≈ 278 µM)
MIC (Escherichia coli C 165): 100 µg/mL (≈ 278 µM)
MIC (Mycoplasma MS): 100 µg/mL (≈ 278 µM)
MIC (Clostridium botulinum): 10 µg/mL (≈ 27.8 µM)
MIC (Mycoplasma S6): 10 µg/mL (≈ 27.8 µM)
MIC (Clostridium tetani): 10 µg/mL (≈ 27.8 µM)
MIC (Klebsiella 8085): 100 µg/mL (≈ 278 µM)
MIC [4]: 1 µg/mL (≈ 2.78 µM)
MIC (Mycoplasma gran): 10 µg/mL (≈ 27.8 µM)

CNC(=O)c1c(C=NNC(=O)OC)[n+]([O-])c2ccccc2[n+]1[O-] [Example 13]
MIC (Mycobacterium species): 100 µg/mL (≈ 313 µM)
MIC [1]: 100 µg/mL (≈ 313 µM)
MIC [2]: 100 µg/mL (≈ 313 µM)
MIC (Aeromonas liquefaciens): 100 µg/mL (≈ 313 µM)
MIC (Escherichia coli A 261): 100 µg/mL (≈ 313 µM)
MIC (Klebsiella 63): 100 µg/mL (≈ 313 µM)
MIC [3]: 100 µg/mL (≈ 313 µM)
MIC (Streptococcus pyogenes): 100 µg/mL (≈ 313 µM)
MIC (Escherichia coli C 165): 100 µg/mL (≈ 313 µM)
MIC (Clostridium botulinum): 100 µg/mL (≈ 313 µM)
MIC (Mycoplasma S6): 100 µg/mL (≈ 313 µM)
MIC (Clostridium tetani): 100 µg/mL (≈ 313 µM)
MIC (Klebsiella 8085): 10 µg/mL (≈ 31.3 µM)
MIC [4]: 100 µg/mL (≈ 313 µM)
MIC (Mycoplasma gran): 100 µg/mL (≈ 313 µM)
MIC (Proteus vulgaris): 100 µg/mL (≈ 313 µM)

CCCNC(=O)c1c(C=NNC(=O)OC)[n+]([O-])c2ccccc2[n+]1[O-] [Example 15]
MIC (Mycobacterium species): 100 µg/mL (≈ 288 µM)
MIC [1]: 100 µg/mL (≈ 288 µM)
MIC [2]: 100 µg/mL (≈ 288 µM)
MIC (Aeromonas liquefaciens): 100 µg/mL (≈ 288 µM)
MIC (Escherichia coli A 261): 100 µg/mL (≈ 288 µM)
MIC (Klebsiella 63): 100 µg/mL (≈ 288 µM)
MIC [3]: 100 µg/mL (≈ 288 µM)
MIC (Streptococcus pyogenes): 10 µg/mL (≈ 28.8 µM)
MIC (Escherichia coli C 165): 100 µg/mL (≈ 288 µM)
MIC (Clostridium botulinum): 100 µg/mL (≈ 288 µM)
MIC (Mycoplasma S6): 100 µg/mL (≈ 288 µM)
MIC (Clostridium tetani): 100 µg/mL (≈ 288 µM)
MIC (Klebsiella 8085): 100 µg/mL (≈ 288 µM)
MIC [4]: 100 µg/mL (≈ 288 µM)
MIC (Mycoplasma gran): 100 µg/mL (≈ 288 µM)

COC(=O)NN=Cc1c(C(=O)NC(C)C)[n+]([O-])c2ccccc2[n+]1[O-] [Example 17]
MIC (Mycobacterium species): 100 µg/mL (≈ 288 µM)
MIC [1]: 100 µg/mL (≈ 288 µM)
MIC [2]: 100 µg/mL (≈ 288 µM)
MIC (Aeromonas liquefaciens): 100 µg/mL (≈ 288 µM)
MIC (Escherichia coli A 261): 100 µg/mL (≈ 288 µM)
MIC (Klebsiella 63): 100 µg/mL (≈ 288 µM)
MIC [3]: 100 µg/mL (≈ 288 µM)
MIC (Streptococcus pyogenes): 100 µg/mL (≈ 288 µM)
MIC (Escherichia coli C 165): 100 µg/mL (≈ 288 µM)
MIC (Clostridium botulinum): 100 µg/mL (≈ 288 µM)
MIC (Mycoplasma S6): 100 µg/mL (≈ 288 µM)
MIC (Clostridium tetani): 100 µg/mL (≈ 288 µM)
MIC (Klebsiella 8085): 10 µg/mL (≈ 28.8 µM)
MIC [4]: 100 µg/mL (≈ 288 µM)
MIC (Mycoplasma gran): 100 µg/mL (≈ 288 µM)

CCNC(=O)c1c(C=NNC(=O)OC)[n+]([O-])c2ccccc2[n+]1[O-] [Example 18]
MIC (Mycobacterium species): 100 µg/mL (≈ 300 µM)
MIC [1]: 100 µg/mL (≈ 300 µM)
MIC [2]: 100 µg/mL (≈ 300 µM)
MIC (Aeromonas liquefaciens): 100 µg/mL (≈ 300 µM)
MIC (Escherichia coli A 261): 100 µg/mL (≈ 300 µM)
MIC (Klebsiella 63): 100 µg/mL (≈ 300 µM)
MIC [3]: 100 µg/mL (≈ 300 µM)
MIC (Streptococcus pyogenes): 100 µg/mL (≈ 300 µM)
MIC (Escherichia coli C 165): 100 µg/mL (≈ 300 µM)
MIC (Clostridium botulinum): 100 µg/mL (≈ 300 µM)
MIC (Mycoplasma S6): 100 µg/mL (≈ 300 µM)
MIC (Clostridium tetani): 100 µg/mL (≈ 300 µM)
MIC (Klebsiella 8085): 10 µg/mL (≈ 30 µM)
MIC [4]: 100 µg/mL (≈ 300 µM)
MIC (Mycoplasma gran): 100 µg/mL (≈ 300 µM)
MIC (Proteus vulgaris): 100 µg/mL (≈ 300 µM)

CNC(=O)c1c(C=NO)[n+]([O-])c2ccccc2[n+]1[O-] [Example 19]
MIC (Mycobacterium species): 40 to 100 µg/mL (≈ 153 to 381 µM)
MIC [1]: 100 µg/mL (≈ 381 µM)
MIC [2]: 100 µg/mL (≈ 381 µM)
MIC (Aeromonas liquefaciens): 100 µg/mL (≈ 381 µM)
MIC (Escherichia coli A 261): 100 µg/mL (≈ 381 µM)
MIC (Klebsiella 63): 100 µg/mL (≈ 381 µM)
MIC [3]: 100 µg/mL (≈ 381 µM)
MIC (Streptococcus pyogenes): 100 µg/mL (≈ 381 µM)
MIC (Escherichia coli C 165): 100 µg/mL (≈ 381 µM)
MIC (Clostridium botulinum): 100 µg/mL (≈ 381 µM)
MIC (Mycoplasma S6): 100 µg/mL (≈ 381 µM)
MIC (Clostridium tetani): 100 µg/mL (≈ 381 µM)
MIC (Klebsiella 8085): 100 µg/mL (≈ 381 µM)
MIC [4]: 100 µg/mL (≈ 381 µM)
MIC (Mycoplasma gran): 100 µg/mL (≈ 381 µM)
MIC (Proteus vulgaris): 100 µg/mL (≈ 381 µM)

CCCNC(=O)c1c(C=NO)[n+]([O-])c2ccccc2[n+]1[O-] [Example 23]
MIC (Mycobacterium species): 100 µg/mL (≈ 344 µM)
MIC [1]: 100 µg/mL (≈ 344 µM)
MIC (Aeromonas liquefaciens): 100 µg/mL (≈ 344 µM)
MIC [3]: 100 µg/mL (≈ 344 µM)
MIC (Mycoplasma MS): 100 µg/mL (≈ 344 µM)
MIC (Clostridium botulinum): 1 µg/mL (≈ 3.44 µM)
MIC (Mycoplasma S6): 100 µg/mL (≈ 344 µM)
MIC (Clostridium tetani): 100 µg/mL (≈ 344 µM)
MIC [4]: 100 µg/mL (≈ 344 µM)
MIC (Mycoplasma gran): 1 µg/mL (≈ 3.44 µM)

CC(C)NC(=O)c1c(C=NO)[n+]([O-])c2ccccc2[n+]1[O-] [Example 24]
MIC (Mycobacterium species): 100 µg/mL (≈ 344 µM)
MIC [1]: 100 µg/mL (≈ 344 µM)
MIC (Aeromonas liquefaciens): 100 µg/mL (≈ 344 µM)
MIC [3]: 100 µg/mL (≈ 344 µM)
MIC (Mycoplasma MS): 100 µg/mL (≈ 344 µM)
MIC (Clostridium botulinum): 1 µg/mL (≈ 3.44 µM)
MIC (Mycoplasma S6): 100 µg/mL (≈ 344 µM)
MIC (Clostridium tetani): 100 µg/mL (≈ 344 µM)
MIC [4]: 100 µg/mL (≈ 344 µM)
MIC (Mycoplasma gran): 1 µg/mL (≈ 3.44 µM)

CCOC(=O)NN=Cc1c(C(=O)NC)[n+]([O-])c2ccccc2[n+]1[O-] [Example 26]
MIC [1]: 100 µg/mL (≈ 300 µM)
MIC [2]: 100 µg/mL (≈ 300 µM)
MIC (Aeromonas liquefaciens): 100 µg/mL (≈ 300 µM)
MIC (Klebsiella 63): 100 µg/mL (≈ 300 µM)
MIC [3]: 100 µg/mL (≈ 300 µM)
MIC (Streptococcus pyogenes): 100 µg/mL (≈ 300 µM)
MIC (Escherichia coli C 165): 100 µg/mL (≈ 300 µM)
MIC (Mycoplasma MS): 100 µg/mL (≈ 300 µM)
MIC (Clostridium botulinum): 1 µg/mL (≈ 3 µM)
MIC (Mycoplasma S6): 100 µg/mL (≈ 300 µM)
MIC (Clostridium tetani): 100 µg/mL (≈ 300 µM)
MIC (Klebsiella 8085): 10 µg/mL (≈ 30 µM)
MIC [4]: 100 µg/mL (≈ 300 µM)
MIC (Mycoplasma gran): 0.1 µg/mL (≈ 0.3 µM)
